Experiments:
Assay type in all cases: in vivo
[1] = test system: two-spotted red spiders (Tetranychus telarius); test: Acaricidal effect on two-spotted red spiders, imago-killing rate, 500 ppm leaf immersion; settings: female imagoes on green bean leaf, leaf immersion about 5 seconds, concentration 500 ppm, fifth day after treatment, 25° C.
Procedure: (§1) Acaricidal Effect on Larvae of Two-Spotted Red Spiders (Tetranychus telarius): A stem of green bean seedling having only one primary left was placed in a test tube (capacity: 50 ml) containing water. 15 female imagoes of two-spotted red spiders were put on each leaf. One day after, the leaf having the two-spotted red spiders was immersed (about 5 seconds) in the present insecticide diluted with water, which had been prepared according to the Preparation Example, (concentration: 500 ppm, repetition: twice). They were kept in a constant-temperature room at 25° C. On the fifth day after the treatment, the female imagoes on the leaf of the green bean seedling were observed. The imago-killing rate (%) was determined on the basis of the results of the observation to obtain the results shown in Table 6.

[2] = test system: eggs of two-spotted red spiders (Tetranychus telarius); test: Acaricidal effect on eggs of two-spotted red spiders, ovicidal rate, 500 ppm spray; settings: eggs on green bean leaf disc; spray 3.5 ml; concentration 500 ppm; 8 days after treatment
Procedure: Acaricidal Effect on Eggs of Two-Spotted Red Spiders (Tetranychus telarius) 5 female imagoes of two-spotted red spiders were released on a green been leaf disc (diameter: 3 cm). Then, the imagoes were left to lay eggs on the leaf disc for 20 hours and then removed therefrom. The present acaricide which had been prepared according to Preparation Example 1 was diluted with water to a predetermined concentration. 3.5 ml of the preparation thus obtained was sprayed with a rotary spraying column (Mizuho Rika) over the disc (concentration: 500 ppm, repetition: twice). 8 days after the treatment, the number of unhatched eggs was counted to determine the ovicidal rate (%).

[3] = test system: two-spotted red spiders (Tetranychus telarius); test: Acaricidal effect of a low concentration (12.5 ppm) on two-spotted red spiders; settings: leaf immersion, female imagoes, fifth day after treatment, 25° C.
Procedure: as §1, with “A” for “Acaricidal Effect on Larvae of Two-Spotted Red Spiders (Tetranychus telarius): A”
Acaricidal Effect of a Low Concentration of Acaricide on Larvae of Two-Spotted Red Spiders (Tetranychus telarius)
The same tests as those of Test Example 2 were repeated except that the concentration of the acaricide was changed to 12.5 ppm.

Compound	Acaricidal rate (%) [1] [%]	Ovicidal rate (%) [2] [%]	acaricidal effect [3] [%]
CO/C=C(/C(=O)OC)c1c(OCc2cnc(OC(C)C(F)(F)F)s2)c(C)nn1C (racemic) [Table 2-19]	100	100	–
CO/C=C(/C(=O)OC)c1c(C#Cc2cc(Cl)cc(Cl)c2)c(C)nn1C [Table 1-6]	100	100	100
CO/C=C(/C(=O)OC)c1c(C#Cc2cc(C)cc(C)c2)c(C)nn1C [Table 1-9]	96	80	–
CCCc1nn(C)c(/C(=C\OC)C(=O)OC)c1C#Cc1cc(C(F)(F)F)cc(C(F)(F)F)c1 [Table 1-15]	100	100	100
CCCc1nn(C)c(/C(=C/OC)C(=O)OC)c1C#Cc1cc(C(F)(F)F)cc(C(F)(F)F)c1 [Table 1-16]	100	100	100
CO/C=C(/C(=O)OC)c1c(C#Cc2cc(C(F)(F)F)cc(C(F)(F)F)c2)c(C(C)(C)C)nn1C [Table 1-18]	100	100	100
CO/C=C(/C(=O)OC)c1c(C#Cc2cc(C(F)(F)F)cc(C(F)(F)F)c2)c(-c2ccccc2)nn1C [Table 1-19]	100	100	100
COC=C(C(=O)OC)c1c(C#Cc2cc(C(F)(F)F)cc(C(F)(F)F)c2)c(C(F)(F)F)nn1C [Table 1-20, Methyl α-[1-methyl-3-trifluoromethyl-4{3,5-bis(trifluoromethyl)phenylethynyl}-5-pyrazole]-β-methoxyacrylate]	100	100	100
CO/C=C(/C(=O)OC)c1c(C#Cc2cc(C(F)(F)F)cc(C(F)(F)F)c2)c(-c2ccc(C(F)(F)F)cc2)nn1C [Table 1-36]	–	–	100
CO/C=C(/C(=O)OC)c1c(OCc2ccc(Oc3ccc(C(F)(F)F)cc3)cc2)c(C)nn1C [Table 2-2]	100	100	–
CO/C=C(/C(=O)OC)c1c(OCc2cccc(Oc3cccc(C(F)(F)F)c3)c2)c(C)nn1C [Table 2-6]	100	100	–
CO/C=C(/C(=O)OC)c1c(OCc2ccc(F)c(Oc3ccccc3)c2)c(C)nn1C [Table 2-7]	100	100	–
CO/C=C(/C(=O)OC)c1c(OCc2cccc(Oc3ccc(Cl)cc3)c2)c(C)nn1C [Table 2-9]	100	100	–
CO/C=C(/C(=O)OC)c1c(OCc2ccc(Oc3ccc(Cl)c(Cl)c3)cc2)c(C)nn1C [Table 2-10]	100	100	–
CO/C=C(/C(=O)OC)c1c(OCc2cccc(Oc3ccc(C(F)(F)F)cc3Cl)c2)c(C)nn1C [Table 2-11]	100	100	–
CO/C=C(/C(=O)OC)c1c(OCc2cccc(Oc3ccc(C)cc3)c2)c(C)nn1C [Table 2-12]	100	100	–
CO/C=C(/C(=O)OC)c1c(OCc2ccc(Oc3ncc(C(F)(F)F)cc3Cl)cc2)c(C)nn1C [Table 2-13]	100	100	–
CO/C=C(/C(=O)OC)c1c(OCc2sc(Oc3ccc(C(F)(F)F)cc3)nc2C)c(C)nn1C [Table 2-14]	100	100	–
CO/C=C(/C(=O)OC)c1c(OCc2cc(C(C)(C)C)ccc2C)c(C)nn1C [Table 2-15]	100	100	–
CO/C=C(/C(=O)OC)c1c(OCc2ccc(Cl)c(Cl)c2)c(C)nn1C [Table 2-16]	96	80	–
